Experiments:
[1] = target: T1, Cyclooxygenase (Rattus norvegicus, UniProt Q63921); assay: Cyclooxygenase activity (PGD2) in RBL-1 cell extracts, 10,000 x g supernatant; format: biochemical; settings: Table 8
T1 construct: The activities of these enzymes in extracts of RBL-1 cells were assayed; host or cells: RBL-1
T1 sequence (Q63921 27-602): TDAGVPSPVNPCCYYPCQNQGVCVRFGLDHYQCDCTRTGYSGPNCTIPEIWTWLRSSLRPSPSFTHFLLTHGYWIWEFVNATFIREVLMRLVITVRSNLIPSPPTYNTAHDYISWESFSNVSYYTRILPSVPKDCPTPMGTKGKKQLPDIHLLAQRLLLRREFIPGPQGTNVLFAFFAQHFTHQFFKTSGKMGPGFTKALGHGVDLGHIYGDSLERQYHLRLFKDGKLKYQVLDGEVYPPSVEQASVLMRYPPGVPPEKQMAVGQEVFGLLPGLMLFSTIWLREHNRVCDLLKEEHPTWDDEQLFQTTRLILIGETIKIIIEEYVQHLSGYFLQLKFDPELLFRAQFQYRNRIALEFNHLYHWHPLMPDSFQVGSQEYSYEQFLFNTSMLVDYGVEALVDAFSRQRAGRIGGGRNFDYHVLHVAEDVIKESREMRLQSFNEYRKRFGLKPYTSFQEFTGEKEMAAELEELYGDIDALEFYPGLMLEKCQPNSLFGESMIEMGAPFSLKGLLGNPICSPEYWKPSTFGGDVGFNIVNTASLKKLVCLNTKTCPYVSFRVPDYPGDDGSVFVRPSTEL
Procedure: For in vitro experiments, compounds were dissolved at appropriate concentrations in ethanol or DMSO (dimethylsulfoxide) (final concentration≤1.0%) and then diluted to final concentrations using the buffers indicated in the text.
RBL-1 cells were obtained from the American Type Culture Collection (#CRL 1378) and were grown at 37° C. (5% CO2 in air) in spinner culture in MEM supplemented with 10% heat inactivated fetal calf serum. Harvested cells were washed with 50 mM sodium phosphate buffer, pH 7.0, containing 1 mM EDTA and 0.1% gelatin, resuspended in fresh buffer (5×10^7 cells/ml) and disrupted by nitrogen cavitation using the Parr bomb at 750 psi for 10 min. The broken cell extract was then centrifuged at 10,000× g for 20 minutes (min) and the supernatant centrifuged at 100,000 xIg for 60 min. Aliquots (0.25 mls) of the supernatant were preincubated with or without drugs for 10 min, after which 10 μl CaCl2 (50 mM) was added and the reaction was initiated with 2.5 μl of 2.5 mM arachidonic acid-1-^14 C (final concentration was 25 μM; specific activity 20,000 dpm/nmole). After incubation for 3 min at 37° C., the reaction was terminated by addition of 2 volumes (0.5 ml) ice cold acetone and the sample was allowed to deproteinize on ice for 10 min prior to centrifugation at 1,000× g for 10 min. […] Arachidonic acid, 5-HETE, LTB4 and PGD2 were quantified with a Berthold LB 2832 autoscanner.

[2] = tested on: Carrageenan-Induced Cellular Infiltration into the Rat Air Pouch; assay: Carrageenan-induced air pouch inflammation; format: in vivo, rat (male Lewis)
Text: (§1) In the following Examples where mice were used, they were male Balb/c mice (20-28 g), and where rats were used, they were male Lewis rats (180-210 g). All mice and rats were obtained from Charles River Breeding Laboratories, Kingston, N.Y. Within a single experiment, mice and rats were sex and age matched.
(§2) The compounds of Formula (I) were used either as the free base or in the appropriate salt form. Levamisole was used as the hydrochloride salt. The compounds were homogenized in 0.5% tragacanth. Compounds were administered by gavage at the indicated dose in a final volume of 10 ml/kg. Nordihydroguaiaretic acid (NDGA) was solubilized in dimethylacetamide and diluted with olive oil for subcutaneous administration.
(§3) Rats were shaved on the dorsal flank, and then injected subcutaneously one day later with 20 ml of air to form a defined pouch, by the method of Sedgwick et al., J. Pathology, 141, 483-495 (1983). The air pouch was reinflated as necessary over the next 6 days. To assay anti-inflammatory activity, animals were treated orally with test compound or vehicle (10 ml/kg) one hour before injection of 2.0 ml of a 2.0% carrageenan suspension containing […] penicillin and 100 µg/ml streptomycin into the air pouch. In other experiments, 5 ml of 0.1% arachidonic acid in 0.2M bicarbonate buffer was injected two hours after drug treatment. Animals were sacrificed using CO2 three hours after instillation of irritant. The exudate was then aspirated from the pouch and neutrophil count and differential cell count were measured.

[3] = tested on: Infiltration of Polymorphonuclear Leukocytes into Sites of Carrageenan-Induced Inflammation; assay: Mouse carrageenan peritonitis (PMN infiltration); format: in vivo, mouse (male Balb/c); settings: carrageenan peritonitis, mice
Text: as §1, §2
Mice were pretreated with either the test compound or vehicle one hour before the intraperitoneal injection of a 1.0% carrageenan suspension in saline (0.2 ml/mouse). Mice were sacrificed by cervical dislocation two hours after injection, and 3.0 ml of phosphate buffered saline, without Ca^++ or Mg^++, was injected into the peritoneum. Following massage, a 2.0 ml aliquot of the lavage fluid was removed, and the total cell count determined on a Coulter counter and differential cell count determined by microscopic examination of Giesma-stained slides.

[4] = tested on: LTB4 synthesis by peritoneal exudate cells; assay: Ex vivo production of LTB4 from peritoneal exudate cells of drug-treated mice; format: in vivo, mouse; settings: for inhibition at 200 mg/kg: Mus musculus, po, 200 mg/kg p.o.
Text: In the following Examples where mice were used, they were male Balb/c mice (20-28 g), and where rats were used, they were male Lewis rats (180-210 g). All mice and rats were obtained from Charles River Breeding Laboratories, Kingston, N.Y. Within a single experiment, mice and rats were sex and age matched. Auranofin, phenidone, indomethacin, naproxen, and ibuprofen were each used as the free base. The compounds of Formula (I) were used either as the free base or in the appropriate salt form. Levamisole was used as the hydrochloride salt. […] Nordihydroguaiaretic acid (NDGA) was solubilized in dimethylacetamide and diluted with olive oil for subcutaneous administration. Carrageenan-induced peritoneal exudate cells from normal or drug-treated mice were washed and suspended in 2.2 ml of phosphate buffered saline. […] The cell preparation was centrifuged at 1500 rpm for 10 min and the supernatant was extracted using a C-18 silica column. […] A tetrahydrofuran, methanol, water, acetic acid (25:30:45: 0.1) solvent system, adjusted to pH 5.5 with ammonium hydroxide, was used at a flow rate of 0.7 ml/min. Cell derived LTB4 was quantified utilizing standard curves constructed with known amounts of synthetic LTB4.

[5] = tested on: Arachidonic Acid-Induced Cellular Infiltration into the Rat Air Pouch; assay: Arachidonic acid-induced air pouch inflammation; format: in vivo, rat (male Lewis)
Text: as §1, §2, §3

[6] = tested on: Arachidonic Acid-Induced Rat Paw Edema; assay: Arachidonic acid-induced rat paw swelling; format: in vivo, rat (male Lewis)
Text: as §1
Auranofin, phenidone, indomethacin, naproxen, and ibuprofen were each used as the free base. The compounds of Formula (I) were used either as the free base or in the appropriate salt form. Levamisole was used as the hydrochloride salt. The compounds were homogenized in 0.5% tragacanth. Compounds were administered by gavage at the indicated dose in a final volume of 10 ml/kg. Nordihydroguaiaretic acid (NDGA) was solubilized in dimethylacetamide and diluted with olive oil for subcutaneous administration.
After determining pretreatment paw volumes by plethysmography by the method of Webb and Griswold, J. Pharmacol. Methods, 12, 149-153 (1984), rats were given test compound or vehicle one hour prior to the subplantar injection of 0.1 ml of 1 mg/ml arachidonic acid. Paw volumes were then remeasured and compared to pretreatment values and the increase in paw volume was expressed as mean values ± S.D.

O=C1CCN(c2ccccc2)N1 [Phenidone]
IC50 Cyclooxygenase [1]: Inactive @ 100 | Cellular Infiltrate MN ([2]; 100 mg/kg): 3.5 ± 1.4 Total × 10^-6 | Cellular Infiltrate PMN ([2]; 100 mg/kg): 1.7 ± 0.6 Total × 10^-6 | Exudate Volume ([2]; 100 mg/kg): 1.5 ± 0.8 mL | Cell infiltration into carrageenan air pouch, result in words ([2]; rat, in vivo): reduction in the PMN count and the PMN:mononuclear cell ratio | PMN infiltration, result in words [3]: effective | inhibition at 200 mg/kg ([4]; Experiment 2): 21% | inhibition at 200 mg/kg ([4]; Experiment 3): 33% | LTB4 production ex vivo, result in words ([4]; mouse, in vivo): weaker but inhibition of LTB4 synthesis | Cellular Infiltrate MN ([5]; 100 mg/kg): 2.2 ± 1.5 Total × 10^-6 | Cellular Infiltrate PMN ([5]; 100 mg/kg): 1.3 ± 0.8 Total × 10^-6 | Exudate Volume ([5]; 100 mg/kg): 2.8 ± 0.4 mL | Cell infiltration into arachidonic acid air pouch, result in words ([5]; rat, in vivo): significantly reduced PMN and mononuclear cell infiltration | Change in Paw Volume ([6]; 100 mg/kg, 2 hours post arachidonic acid): 0.13 ± 0.05 mL | Rat paw inflammatory response, result in words ([6]; rat, in vivo): inhibited significantly

From patent publication US5134150A, “Inhibition of the 5-lipoxygenase pathway” (priority 1989, dated 1992)
